# According to patent publication US6344440B1, “Antisecretory factor peptides regulating pathological permeability changes” (Rural Patent Svenska AB, priority 1995, dated 2002):
# B1: rAF: recombinant human antisecretory factor, SEQ ID No. 2, thrombin-cleaved pure AF-1 protein expressed in E. coli (protein)
# chain: MVLESTMVCVDNSEYMRNGDFLPTRLQAQQDAVNIVCHSKTRSNPENNVGLITLANDCEVLTTLTPDTGRILSKLHTVQPKGKITFCTGIRVAHLALKHRQGKNHKMRIIAFVGSPVEDNEKDLVKLAKRLKKEKVNVDIINFGEEEVNTEKLTAFVNTLNGKDGTGSHLVTVPPGPSLADALISSPILAGEGGAMLGLGASDFEFGVDPSADPELALALRVSMEEQRHAGGGARRAARASAAEAGIATTGTEDSDDALLKMTISQQEFGRTGLPDLSSMTEEEQIAYAMQMSLQGAEFGQAESADIDASSAMDTSEPAKEEDDYDVMQDPEFLQSVLENLPGVDPNNEAIRNAMGSLPPRPPRTARRTRRRKTRSETGGKG
# modifications: Human
# B2: N1: recombinant peptide, amino acids 1-80 of SEQ ID NO:2, expressed from basepairs 63-301 (protein)
# chain: MVLESTMVCVDNSEYMRNGDFLPTRLQAQQDAVNIVCHSKTRSNPENNVGLITLANDCEVLTTLTPDTGRILSKLHTVQP
# modifications: Human
# Tests used:
# [1] = test system: cholera toxin-induced fluid secretion in rat intestine; settings: in vivo
# [2] = test system: toxin A from Clostridium difficile-induced inflammation and fluid secretion in the intestinal mucosa; test: Toxin A-induced intestinal inflammation and fluid secretion, rat intestinal loop model; format: in vivo; settings: for toxin A-induced fluid secretion: p<0.01
# Description: The effect of rAF on inflammation in the intestinal mucosa was also tested in the rat intestinal loop model. […] Half of the rats in each group received 100 ng of rAF intravenously 30 sec prior to the challenge; the other half received PBS buffer as control. After killing the rat, the loops was dissected out, and the middle 2-3 cm part of the loops were frozen on dry ice. The frozen specimens were then sectioned in 8 μm thick sections by use of a Leica cryostat. […] Alkaline phosphatases are expressed by the intestinal epithelial cells and the staining allows an assessment and of the integrity of the intestinal epithelium.
# [3] = test system: CT-induced extravascular penetration of Evans blue in the plexus choroideus; settings: rat, in vivo, iv
# [4] = test system: CT-induced extravascular penetration of Evans blue in the small intestine; settings: rat, in vivo, iv
# [5] = Toxicity of rAF in rats; format: in vivo, rat
# Description: Toxicity—In order to test the toxicity of rAF it was injected in a high dose, 50 μg per rat.
# [6] = test system: cholera toxin-induced Evans blue permeation of intestinal tissue; settings: rat, in vivo
molecule,measurement,setting,value
IVCHSKTR (Human) [P1],ED50 (amount causing halfmaximal inhibition),[1],5 pmol
same,active dose,[1],less than 1 ng
same,activity (inhibition of cholera secretion),[1],active
same,effect on toxin A-induced intestinal inflammation and fluid secretion,[2]; 0.5 μg replacing the rAF protein,achieved the same effect
same,"state of intestinal mucosa (alkaline phosphatase staining, FIG. 9)",[2]; 0.5 μl of P1 prior to toxin challenge,a conserved and normal intestinal mucosa
same,"CT-induced extravascular penetration of Evans blue, plexus choroideus",[3],inhibits the CT-induced extravascular penetration of Evans blue
same,"CT-induced extravascular penetration of Evans blue, small intestine",[4],inhibits the CT-induced extravascular penetration of Evans blue
"N2: recombinant peptide, amino acids 36-80 of SEQ ID NO:2, expressed from basepairs 168-301 (VCHSKTRSNPENNVGLITLANDCEVLTTLTPDTGRILSKLHTVQP; Human)",ED50 (amount causing halfmaximal inhibition),[1],6 pmol
"N3: recombinant peptide, amino acids 36-51 of SEQ ID NO:2, expressed from basepairs 168-215 (VCHSKTRSNPENNVGL; Human)",ED50 (amount causing halfmaximal inhibition),[1],3 pmol
"P3: peptide of amino acids 35-46 of SEQ ID NO:2, solid phase synthesis (IVCHSKTRSNPE; Human)",ED50 (amount causing halfmaximal inhibition),[1],7 pmol
same,activity (inhibition of cholera secretion),[1],active
VCHSKT (Human) [P2],effect on the toxin response,[1],no effect
B1,toxic reaction,"[5]; 50 μg per rat, observation period of one week",No obvious toxic reaction
same,toxic reactions,[5]; rats given 100 fold higher doses than that causing half-maximal inhibition,no obvious toxic reactions
same,inhibition of intestinal secretion compared to control animals,[1],significant inhibition
same,reduction of the fluid secretion compared to controls,[1],significant reduction
same,"damage of the intestinal mucosa (shedding, necrosis, bleeding)","[2]; 100 ng i.v. 30 sec prior to 0.5 μg toxin A, 2.5 and 5 h","no shedding, necrosis or bleeding"
same,toxin A-induced fluid secretion,"[2]; 100 ng i.v. 30 sec prior to 0.5 μg toxin A, after 2.5 h, control 199±4",137 ± 5 mg/cm
same,toxin A-induced fluid secretion,"[2]; 100 ng i.v. 30 sec prior to 0.5 μg toxin A, after 6 h, control 421±3",203 ± 6 mg/cm
same,% increase of EB-konc,[6],0 NS %
same,CT-induced increase of EB extracted from the intestinal tissue,[6],prevent this increase
same,EB/g int. tissue × 10^−07,[6],29.6 ± 1.5 EB/g int. tissue × 10^−07
B2,ED50 (amount causing halfmaximal inhibition),[1],4 pmol
